# Key:
# Test in all cases: relative viability (nuclei count vs DMSO), 5 days (fraction); higher = more cells survive
# [1] = compound: CC1CC(=O)N(C2=CN=C(N=C2N1C3CCCC3)NC4=C(C=C(C=C4)C(=O)NC5CCN(CC5)C)OC)C [NPK76-II-72-1] + CC(=O)c1c(C)c2cnc(Nc3ccc(N4CCNCC4)cn3)nc2n(C2CCCC2)c1=O [Palbociclib] (partner 0.5 µM)
# Procedure, shortened: (§1)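 Relative viability is defined as nuclei in treated wells over nuclei in vehicle wells. Duplicate plates were run and medians reported. Lung cancer cell lines in 1536-well plates were dosed by pin tool one day after seeding, with one drug or with a fixed anchor-drug dose plus five library-drug doses (not always all listed) in √10 steps, and nuclei were counted after 5 days.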
# [2] = compound: CC[C@@H]1C(=O)N(C)c2cnc(Nc3ccc(C(=O)NC4CCN(C)CC4)cc3OC)nc2N1C1CCCC1 [BI-2536] + COc1cc2c(Oc3ccc(NC(=O)C4(C(=O)Nc5ccc(F)cc5)CC4)cc3F)ccnc2cc1OCCCN1CCOCC1 [Foretinib] (partner 0.25 µM)
# Procedure, shortened: as §1
# [3] = compound: CC[C@@H]1C(=O)N(C)c2cnc(Nc3ccc(C(=O)NC4CCN(C)CC4)cc3OC)nc2N1C1CCCC1 [BI-2536] + Cc1nc(Nc2ncc(C(=O)Nc3c(C)cccc3Cl)s2)cc(N2CCN(CCO)CC2)n1 [Dasatinib] (partner 0.075 µM)
# Procedure, shortened: as §1
# [4] = compound: CC[C@@H]1C(=O)N(C)c2cnc(Nc3ccc(C(=O)NC4CCN(C)CC4)cc3OC)nc2N1C1CCCC1 [BI-2536] + Nc1nc2[nH]cc(CCc3ccc(C(=O)N[C@@H](CCC(=O)O)C(=O)O)cc3)c2c(=O)[nH]1 [Pemetrexed] (partner 0.2 µM)
# Procedure, shortened: as §1
cell line,measurement,setting,value
UMC-11,relative viability,[1]; first compound 0.01 µM,0.301
same,relative viability,[1]; first compound 0.03162 µM,0.326
same,relative viability,[1]; first compound 0.1 µM,0.265
same,relative viability,[1]; first compound 0.3162 µM,0.355
same,relative viability,[1]; first compound 1 µM,0.355
same,relative viability,[2]; first compound 0.01 µM,0.927
same,relative viability,[2]; first compound 0.03162 µM,0.661
same,relative viability,[2]; first compound 0.1 µM,0.174
same,relative viability,[2]; first compound 0.3162 µM,0.19
same,relative viability,[2]; first compound 1 µM,0.191
same,relative viability,[3]; first compound 0.01 µM,0.432
same,relative viability,[3]; first compound 0.03162 µM,0.243
same,relative viability,[3]; first compound 0.1 µM,0.141
same,relative viability,[3]; first compound 0.3162 µM,0.183
same,relative viability,[3]; first compound 1 µM,0.158
same,relative viability,[4]; first compound 0.01 µM,0.8
same,relative viability,[4]; first compound 0.03162 µM,0.57
same,relative viability,[4]; first compound 0.1 µM,0.242
same,relative viability,[4]; first compound 0.3162 µM,0.194
same,relative viability,[4]; first compound 1 µM,0.184
